Assay results published in patent US7160874B2, “Phenylalanine derivatives” (Ajinomoto Co., Inc., priority 1999, dated 2007).
Where two headings read alike, the source gives them in different places.

What was measured:
integrin α4β7 = biological target: T1, integrin α4β7 (Homo sapiens, UniProt P13612+P26010); assay: VCAM antagonistic activity (VCAM-1/α4β7 binding assay); format: cell-based
T1 construct: lymphoma cell strain RPMI-8866 of human B cells, known to express integrin α4β7; endogenous in cells; host or cells: RPMI-8866 (human B lymphoma cell line)
T1 sequence (P13612 34-1032): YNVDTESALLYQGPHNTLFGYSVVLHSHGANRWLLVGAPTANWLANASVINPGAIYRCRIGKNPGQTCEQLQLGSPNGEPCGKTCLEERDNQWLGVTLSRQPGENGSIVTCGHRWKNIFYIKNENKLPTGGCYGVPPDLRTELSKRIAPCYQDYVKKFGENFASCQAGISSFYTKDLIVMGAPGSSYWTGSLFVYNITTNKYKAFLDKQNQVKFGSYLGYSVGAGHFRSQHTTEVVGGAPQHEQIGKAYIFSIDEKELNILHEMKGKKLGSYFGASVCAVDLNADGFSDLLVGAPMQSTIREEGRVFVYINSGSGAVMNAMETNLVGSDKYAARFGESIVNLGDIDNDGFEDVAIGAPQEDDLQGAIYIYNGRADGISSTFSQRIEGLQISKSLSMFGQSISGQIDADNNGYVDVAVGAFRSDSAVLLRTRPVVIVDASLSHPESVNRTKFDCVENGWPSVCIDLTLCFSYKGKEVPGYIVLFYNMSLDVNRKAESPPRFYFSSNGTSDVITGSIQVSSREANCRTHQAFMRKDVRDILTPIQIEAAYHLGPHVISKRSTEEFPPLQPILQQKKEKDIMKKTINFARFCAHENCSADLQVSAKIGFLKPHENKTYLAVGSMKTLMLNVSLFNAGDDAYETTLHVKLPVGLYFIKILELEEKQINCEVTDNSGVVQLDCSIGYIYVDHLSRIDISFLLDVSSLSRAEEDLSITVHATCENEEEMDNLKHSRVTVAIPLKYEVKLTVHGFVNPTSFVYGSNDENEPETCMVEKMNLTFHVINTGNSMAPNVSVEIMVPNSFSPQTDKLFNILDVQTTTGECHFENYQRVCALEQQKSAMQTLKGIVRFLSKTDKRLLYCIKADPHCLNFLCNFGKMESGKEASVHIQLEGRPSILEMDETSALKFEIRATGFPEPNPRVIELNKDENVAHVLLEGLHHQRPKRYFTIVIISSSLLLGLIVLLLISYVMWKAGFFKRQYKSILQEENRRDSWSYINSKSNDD
T1 sequence (P26010 20-798): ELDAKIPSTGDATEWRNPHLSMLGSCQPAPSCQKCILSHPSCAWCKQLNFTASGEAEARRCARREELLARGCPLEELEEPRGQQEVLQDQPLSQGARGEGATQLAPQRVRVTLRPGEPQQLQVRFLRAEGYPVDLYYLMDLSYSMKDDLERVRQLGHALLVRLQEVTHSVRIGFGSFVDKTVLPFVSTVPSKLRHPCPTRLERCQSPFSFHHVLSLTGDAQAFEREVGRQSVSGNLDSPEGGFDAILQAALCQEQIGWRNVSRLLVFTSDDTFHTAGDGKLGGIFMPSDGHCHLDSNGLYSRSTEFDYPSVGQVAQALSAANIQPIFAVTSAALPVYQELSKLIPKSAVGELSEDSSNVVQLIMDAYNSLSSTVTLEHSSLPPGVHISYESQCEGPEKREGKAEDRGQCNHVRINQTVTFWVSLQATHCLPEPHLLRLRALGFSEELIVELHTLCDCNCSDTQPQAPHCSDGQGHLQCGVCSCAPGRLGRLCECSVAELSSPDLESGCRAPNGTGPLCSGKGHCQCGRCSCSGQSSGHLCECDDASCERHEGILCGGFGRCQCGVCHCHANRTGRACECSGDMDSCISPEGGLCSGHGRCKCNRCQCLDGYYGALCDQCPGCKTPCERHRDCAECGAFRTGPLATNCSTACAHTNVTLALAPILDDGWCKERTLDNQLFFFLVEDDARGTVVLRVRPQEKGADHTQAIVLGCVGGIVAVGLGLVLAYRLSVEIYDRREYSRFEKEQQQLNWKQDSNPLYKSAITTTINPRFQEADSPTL
Protocol: (Test Example) VCAM Antagonistic Activity (VCAM-1/α4β7 Binding Assay):
The capacity of a test substance antagonistic to the binding of lymphoma cell strain RPMI-8866 of human B cells, known to express integrin α4β7, to VCAM-1 was determined.
(§1) 100 μl/well of a solution (500 ng/ml) of recombinant human VCAM-1 (R & D systems) solution diluted with buffer A (0.1 M NaHCO3, pH 9.6) was added to a micro titer plate having 96 wells (Nunc Maxisorp). After the incubation at 4° C. overnight, unbound VCAM-1 was removed by washing once with PBS. After completion of the washing, a buffer (buffer B) obtained by diluting Block Ace® (Dainippon Pharmaceutical Co., Ltd.) with PBS to 1/4 concentration was added in an amount of 150 μl/well. After the incubation at room temperature for 1 hour, buffer B was removed and the plate was washed with PBS once.
RPMI-8866 cells were incubated in Dulbecco modified Eagle medium containing 10 μg/ml of Calcein-AM (Wako Pure Chemical Industries, Ltd.) (SIGMA, hereinafter referred to as “DMEM”) at 37° C. for 30 minutes to label with fluorescence. The cells were again suspended in a binding buffer (20 mM HEPES, DMEM containing 0.1% BSA) containing 4 mM of MnCl2.
(§2) 50 μl of a test substance of various concentrations obtained by the dilution with the binding buffer was added to the plate. Immediately thereafter, 50 μl (final volume: 100 μl/well) of the fluorescent RPMI-8866 cells (4×10^6 cells/ml) were added thereto, and they were incubated at room temperature for 30 minutes. After the shaking on a plate shaker (IKA MTS-4) at 800 rpm for 30 seconds, the solution was immediately removed to remove the unbound cells. The fluorescence quantity of the bound cells remaining in the wells was determined with a fluorescent plate reader (Wallac 1420 ARVO multi-label counter) (filter excitation wave length: 485 nm, emission wave length: 535 nm). The fluorescent strength thus obtained is proportional to the number of RPMI-8866 cells bound to VCAM-1 and remaining on the plate. The binding rate of each test material in various concentrations was determined while the fluorescent strength of the test material-free well was determined to be 100%. The concentration IC50 for the 50% binding inhibition was calculated.
(§3) The activities were classified into group A wherein IC50 was 0.02 μmol/l or below, group B wherein IC50 was higher than 0.02 μmol/l and not above 0.1 μmol/l, group C wherein IC50 was higher than 0.1 μmol/l and not above 2 μmol/l, and group D wherein IC50 was higher than 2 μmol/l and not above 10 μmol/l.

integrin α4β1 = biological target: T2, integrin α4β1 (Homo sapiens, UniProt P05556+P13612); assay: VCAM antagonist activity (VCAM-1/α4β1 binding assay); format: cell-based
T2 construct: cell strain Jurkat (ATCC TIB-152) of human T cells, known to express integrin α4β1; host or cells: Jurkat (human T cell line)
Protocol: (Test Example) VCAM Antagonist Activity (VCAM-1/α4β1 Binding Assay):
The capacity of a test substance antagonistic to the binding of cell strain Jurkat (ATCC TIB-152) of human T cells, known to express integrin α4β1, to VCAM-1 was determined.
as §1
Jurkat cells were washed with Dulbecco modified Eagle medium (SIGMA, hereinafter referred to as “DMEM”) twice and then incubated in DMEM containing 10 μg/ml of Calcein-AM (Wako Pure Chemical Industries, Ltd.) at 37° C. in dark place for 30 minutes to label with fluorescence. The cells were again suspended in a binding buffer (20 mM HEPES, DMEM containing 0.1% BSA).
as §2, with “Jurkat” for “RPMI-8866”
as §3

[1] = RPMI-8866 cells binding to VCAM-1, read-out: VCAM antagonistic activity (IC50) α4β7
[2] = Jurkat cells binding to VCAM-1, read-out: VCAM antagonistic activity (IC50) α4β1

T2 sequence (P05556 21-798, one chain of several): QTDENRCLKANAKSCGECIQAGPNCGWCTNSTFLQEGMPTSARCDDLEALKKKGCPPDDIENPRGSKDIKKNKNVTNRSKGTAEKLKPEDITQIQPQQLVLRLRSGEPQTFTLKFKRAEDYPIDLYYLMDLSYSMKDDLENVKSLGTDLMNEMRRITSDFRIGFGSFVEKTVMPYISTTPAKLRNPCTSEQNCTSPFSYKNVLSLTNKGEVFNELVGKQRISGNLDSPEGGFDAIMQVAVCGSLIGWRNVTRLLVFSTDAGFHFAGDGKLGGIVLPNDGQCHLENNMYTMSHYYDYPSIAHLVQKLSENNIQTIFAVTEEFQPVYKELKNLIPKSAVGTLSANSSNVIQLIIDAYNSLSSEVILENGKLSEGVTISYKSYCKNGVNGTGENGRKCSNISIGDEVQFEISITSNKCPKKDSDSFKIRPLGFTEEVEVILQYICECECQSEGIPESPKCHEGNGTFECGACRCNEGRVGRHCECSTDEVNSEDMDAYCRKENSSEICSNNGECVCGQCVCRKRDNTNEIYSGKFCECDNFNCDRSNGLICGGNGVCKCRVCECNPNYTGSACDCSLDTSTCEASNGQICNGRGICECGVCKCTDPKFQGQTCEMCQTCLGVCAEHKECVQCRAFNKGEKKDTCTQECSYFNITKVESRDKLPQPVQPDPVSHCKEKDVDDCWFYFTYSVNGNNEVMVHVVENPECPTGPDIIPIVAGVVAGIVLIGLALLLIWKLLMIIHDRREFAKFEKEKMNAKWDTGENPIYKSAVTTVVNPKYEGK

Compound	IC50 (integrin α4β7; [1]) [nM]	IC50 (integrin α4β1; [2]) [nM]	IC50 (integrin α4β7) [nM]	IC50 (integrin α4β1) [nM]
CCC(CC)(C(=O)N[C@@H](Cc1ccc(OCc2c(Cl)cccc2Cl)cc1)C(=O)O)C(=O)N1CCC(=O)C1 [Example 69]	< 20	100 to 2000		
CCC(CC)(C(=O)N[C@@H](Cc1ccc(OCc2c(Cl)cccc2Cl)cc1)C(=O)O)C(=O)N1CCC[C@@H]1C(N)=O [Example 70]	< 20	20 to 100		
CCC(CC)(C(=O)N[C@@H](Cc1ccc(OCc2c(Cl)cccc2Cl)cc1)C(=O)O)C(=O)N1CCC[C@H]1C(=O)NC [Example 72]	< 20	20 to 100		
CCC(CC)(C(=O)N[C@@H](Cc1ccc(OCc2c(Cl)cccc2Cl)cc1)C(=O)O)C(=O)N1CC[C@@H](N)C1 [Example 76]	< 20	100 to 2000		
CCC(CC)(C(=O)N[C@@H](Cc1ccc(OCc2c(Cl)cccc2Cl)cc1)C(=O)O)C(=O)N1CCC[C@@H](O)C1 [Example 77]	< 20	100 to 2000		
CCC(CC)(C(=O)N[C@@H](Cc1ccc(OCc2c(Cl)cccc2Cl)cc1)C(=O)O)C(=O)N1CCC1 [Example 78]	< 20	100 to 2000		
CCC(CC)(C(=O)N[C@@H](Cc1ccc(OCc2c(Cl)cccc2Cl)cc1)C(=O)O)C(=O)N1CC(Br)C(Br)C1 (stereo partly drawn) [Example 79, N-(2-{[(trans-3,4-dibromopyrrolidine)-1-yl]carbonyl}-2-ethyl-butanoyl)-O-(2,6-dichlorobenzyl)-L-tyrosine]			< 20	100 to 2000
CCC(CC)(C(=O)N[C@@H](Cc1ccc(OCc2c(Cl)cccc2Cl)cc1)C(=O)O)C(=O)N1CC[C@H](F)C1 [Example 80]	< 20	100 to 2000		
CCC(CC)(C(=O)N[C@@H](Cc1ccc(OCc2c(Cl)cccc2Cl)cc1)C(=O)O)C(=O)N1C[C@@H](O)[C@@H](O)C1 [Example 81, N-(2-{[(cis-3,4-dihydroxypyrrolidine)-1-yl]carbonyl}-2-ethyl-butanoyl)-O-(2,6-dichlorobenzyl)-L-tyrosine]	< 20	100 to 2000		
CCC(CC)(C(=O)N[C@@H](Cc1ccc(OCc2c(Cl)cccc2Cl)cc1)C(=O)O)C(=O)N1CC(O)C(Cl)C1 (stereo partly drawn) [Example 82]	< 20	20 to 100		
CCC(CC)(C(=O)N[C@@H](Cc1ccc(OCc2c(Cl)cccc2Cl)cc1)C(=O)O)C(=O)N1CC[C@@H](F)C1 [Example 84]	< 20	100 to 2000		
CSc1ncc(Cl)c(C(=O)Nc2ccc(C[C@H](NC(=O)C3(C(=O)N(C)C)CC3)C(=O)O)cc2)n1 [Example 85, N-[1-N,N-dimethylaminocarbonylcyclopropane-1-ylcarbonyl]-4-({[5-chloro-2-(methylthio)pyrimidine-4-yl]carbonyl}-amino)-L-phenylalanine]	< 20	100 to 2000		
CN(C)C(=O)C1(C(=O)N[C@@H](Cc2ccc(NC(=O)c3cc(F)c(F)cc3Cl)cc2)C(=O)O)CC1 [Example 86]	20 to 100	100 to 2000		
CN(C)C(=O)C1(C(=O)N[C@@H](Cc2ccc(NC(=O)c3cc(Br)ccc3Cl)cc2)C(=O)O)CC1 [Example 87]	20 to 100	100 to 2000		
CN(C)C(=O)C1(C(=O)N[C@@H](Cc2ccc(NC(=O)c3cc(Br)ccc3Br)cc2)C(=O)O)CC1 [Example 88]	100 to 2000	100 to 2000		
COc1ccc(Br)c(C(=O)Nc2ccc(C[C@H](NC(=O)C3(C(=O)N(C)C)CC3)C(=O)O)cc2)c1 [Example 89]	100 to 2000	100 to 2000		
CN(C)C(=O)C1(C(=O)N[C@@H](Cc2ccc(NC(=O)c3c(Cl)cccc3Cl)cc2)C(=O)O)CC1 [Example 90, N-[1-(N,N-dimethylaminocarbonyl)-cyclopropane-1-ylcarbonyl]-4-{[2,6-dichlorophenylcarbonyl]amino}-L-phenylalanine]	20 to 100	100 to 2000		
CCC(CC)(C(=O)N[C@@H](Cc1ccc(NC(=O)c2c(Cl)cccc2Cl)cc1)C(=O)O)C(=O)N1CCCC1 [Example 91, N-[2-(pyrrolidine-1-ylcarbonyl)-2-ethyl-butanoyl]-4-{[(2,6-dichlorophenyl)carbonyl]amino}-L-phenylalanine]	< 20	< 20		
